The values below come from patent publication US7919508B2, “3-piperidinylisochroman-5-ols as dopamine agonists” (Aventis Pharmaceuticals Inc., priority 2004, dated 2011).

The target in assay [1] is human dopamine D2Long (D2L) receptors (Homo sapiens, UniProt P14416).
A further assay addresses T1, D1 receptor (Homo sapiens, UniProt P21728).
T1 construct: expressed in transfected cells; host or cells: D1 transfected CHO cell line
Briefly: D1 Activation Adenylyl Cyclase Assay (cAMP FlashPlate, D1 transfected CHO cell line). It is filed as cell-based. Particulars: agonist activity at the D1 receptor, adenylate cyclase assay, D1 transfected CHO cell line; read-out: D1 EC50. A digest of the protocol:
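D1-transfected CHO cells (50,000/well) were exposed to compound 1/10 serial dilutions for 8 min at RT; cAMP measured by competitive 125I-cAMP FlashPlate against a standard curve. Response normalised between basal and saturating D1 agonist; EC50 at half-maximal stimulation, plateau reported as % maximal dopamine stimulation.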

Assay [2] deals with T2, human dopamine D1 receptor (Homo sapiens, UniProt P21728).
T2 construct: A 1.4 Kb Hind III to Xho I fragment was subcloned into the vector pMMLV; expressed in transfected cells; host or cells: CHO cells, clone CHO-D1M#9 (plasmid pHD1MMLV), membranes
T2 sequence (P21728 whole entry, the tested form may be a part): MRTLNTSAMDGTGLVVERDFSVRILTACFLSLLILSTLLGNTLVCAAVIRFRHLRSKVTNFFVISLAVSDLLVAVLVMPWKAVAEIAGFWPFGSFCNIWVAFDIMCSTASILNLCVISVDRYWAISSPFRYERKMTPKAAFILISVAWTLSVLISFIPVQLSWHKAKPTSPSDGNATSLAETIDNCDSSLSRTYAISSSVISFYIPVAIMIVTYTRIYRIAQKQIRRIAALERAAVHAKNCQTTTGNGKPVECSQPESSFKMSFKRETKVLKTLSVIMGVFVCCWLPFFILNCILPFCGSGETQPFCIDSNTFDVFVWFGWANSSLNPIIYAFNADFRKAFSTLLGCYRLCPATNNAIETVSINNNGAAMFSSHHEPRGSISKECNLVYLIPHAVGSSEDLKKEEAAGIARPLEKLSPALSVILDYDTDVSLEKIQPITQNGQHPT
Briefly: [3H]-SCH-23390 binding to cloned human dopamine D1 receptors (CHO cell membranes). Particulars: competitive binding, [3H]-SCH-23390, cloned human D1 in CHO membranes; read-out: D1 affinity Ki.

SMILES strings stand for the structures. Where a name gives a salt, the structure may show the parent alone.

As usually defined, the Ki is the dissociation constant of the complex between target and ligand, obtained from inhibition or displacement. For orientation: EC50 means the concentration that produces a half-maximal response.

T1 sequence (P21728 whole entry): as the sequence (P21728 whole entry, the tested form may be a part) above
Chain of human dopamine D2Long (D2L) receptors (P14416 whole entry): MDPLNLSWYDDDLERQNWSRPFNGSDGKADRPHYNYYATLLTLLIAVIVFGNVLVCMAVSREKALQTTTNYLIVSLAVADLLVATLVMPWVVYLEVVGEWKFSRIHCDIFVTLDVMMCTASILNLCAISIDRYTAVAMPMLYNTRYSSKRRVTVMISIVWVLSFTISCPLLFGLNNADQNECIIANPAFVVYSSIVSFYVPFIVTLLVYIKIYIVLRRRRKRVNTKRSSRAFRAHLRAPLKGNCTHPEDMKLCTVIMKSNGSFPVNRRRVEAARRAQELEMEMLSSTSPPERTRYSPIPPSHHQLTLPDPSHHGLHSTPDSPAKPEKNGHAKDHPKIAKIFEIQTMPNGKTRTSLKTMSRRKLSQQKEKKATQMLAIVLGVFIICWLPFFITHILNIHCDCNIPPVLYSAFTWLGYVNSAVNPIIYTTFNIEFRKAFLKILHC

For the molecule `CCC(CN1CCC([C@@H]2Cc3c(ccc(C)c3O)[C@H](CNC)O2)CC1)c1ccccc1` (stereo partly drawn) [Example 194, (1R,3S)-6-Methyl-1-methylaminomethyl-3-[1-(2-phenylbutyl)-piperidin-4-yl]isochroman-5-ol dihydrochloride], the Ki worked out at 639 nM in assay [1] and 54 nM in assay [2]. The 50% effective concentration (EC50) at D1 receptor was found to be 34 nM.

As for `Cc1ccc2c(c1O)C[C@@H](C1CCN(Cc3ccc(Oc4ccccc4)cc3)CC1)O[C@H]2CN` [Example 46, (1R,3S)-1-Aminomethyl-6-methyl-3-[1-(4-phenoxy-benzyl)-piperidin-4-yl]-isochroman-5-ol dihydrochloride], the inhibition constant Ki came to 215 nM in assay [1] and 49 nM in assay [2]. For the same molecule, the EC50 on D1 receptor amounted to 100 nM.

As for `Cc1ccc2c(c1O)C[C@@H](C1CCN(CCNC(=O)c3ccc(F)cc3)CC1)O[C@H]2CN` [Example 189, N-{2-[4-((1R,3S)-1-Aminomethyl-5-hydroxy-6-methylisochroman-3-yl)-piperidin-1-yl]ethyl}-4-fluorobenzamide dihydrobromide], the Ki worked out at 61 nM in assay [1] and 312 nM in assay [2]. Besides, the EC50 at D1 receptor worked out at 270 nM.

With `Cc1ccc2c(c1O)C[C@@H](C1CCN(CCC(C)NC(=O)c3ccccc3)CC1)O[C@H]2CN` (stereo partly drawn) [Example 21, N-{3-[4-((1R,3S)-1-Aminomethyl-5-hydroxy-6-methyl-isochroman-3-yl)-piperidin-1-yl]-1-methyl-propyl}-benzamide dihydrochloride], the Ki in assay [1] is ≥ 100000 nM; in assay [2], 120 nM. Besides, on D1 receptor, the EC50 worked out at 14 nM.

Regarding `Cc1ccc2c(c1O)C[C@@H](C1CCN(C3Cc4ccccc4C3)CC1)O[C@H]2CN` [Example 32, (1R,3S)-1-Aminomethyl-3-(1-indan-2-yl-piperidin-4-yl)-6-methyl-isochroman-5-ol dihydrobromide], the figures for the Ki in assay [1] and in assay [2] were 127 nM and 22 nM, respectively. In addition, the concentration for a half-maximal effect (EC50) on D1 receptor turned out to be 12 nM.

For the molecule `CNC[C@@H]1O[C@H](C2CCN(Cc3ccc(C)cc3)CC2)Cc2c1ccc(C)c2O` [Example 101, (1R,3S)-6-Methyl-1-methylaminomethyl-3-[1-(4-methyl-benzyl)-piperidin-4-yl]-isochroman-5-ol dihydrochloride], the Ki in assay [1] was 322 nM; in assay [2], 92.2 nM. On D1 receptor, the EC50 was found to be 33 nM.

As to `Cc1ccc2c(c1O)C[C@@H](C1CCN(Cc3ccc(C(F)(F)F)cc3)CC1)O[C@H]2CN` [Example 74, (1R,3S)-1-Aminomethyl-6-methyl-3-[1-(4-trifluoromethyl-benzyl)-piperidin-4-yl]-isochroman-5-ol dihydrochloride], the results for the Ki in assay [1] and in assay [2] were 655 nM and 57 nM, respectively. For the same molecule, the EC50 at D1 receptor is 6 nM.

In the case of `CCCCN1CCC([C@@H]2Cc3c(ccc(C)c3O)[C@H](CN)O2)CC1` [Example 33, (1R,3S)-1-Aminomethyl-3-(1-butyl-piperidin-4-yl)-6-methyl-isochroman-5-ol dihydrochloride], the Ki was ≥ 10000 nM in assay [1] and 70 nM in assay [2]. Moreover, the EC50 on D1 receptor was found to be 13 nM.

In the case of `Cc1ccc2c(c1O)C[C@@H](C1CCN(Cc3ccc(-c4ccccc4)cc3)CC1)O[C@H]2CN` [Example 49, (1R,3S)-1-Aminomethyl-3-(1-biphenyl-4-ylmethyl-piperidin-4-yl)-6-methyl-isochroman-5-ol dihydrochloride], the Ki in assay [1] turned out to be 310 nM; in assay [2], 48.2 nM. Moreover, at D1 receptor, the EC50 came out at 78 nM.

`Cc1ccc2c(c1O)C[C@@H](C1CCN(C(=O)Nc3ccccc3F)CC1)O[C@H]2CN` [Example 129, 4-((1R,3S)-1-Aminomethyl-5-hydroxy-6-methyl-isochroman-3-yl)-piperidine-1-carboxylic acid (2-fluoro-phenyl)-amide hydrochloride]: the Ki in assay [1] is ≥ 10000 nM; in assay [2], 113 nM. Moreover, the EC50 at D1 receptor was found to be 2000 nM.

In the case of `Cc1ccc2c(c1O)C[C@@H](C1CCN(S(=O)(=O)c3ccc4ccccc4c3)CC1)O[C@H]2CN` [Example 147, (1R 3S)-1-Aminomethyl-6-methyl-3-[1-(naphthalene-2-sulfonyl)-piperidin-4-yl]-isochroman-5-ol hydrochloride], the values for the Ki in assay [1] and in assay [2] were 623 nM and 108 nM, respectively. At D1 receptor, the EC50 was found to be 394 nM.

Regarding `Cc1ccc2c(c1O)C[C@@H](C1CCN(C(=O)Nc3ccc(F)cc3)CC1)O[C@H]2CN` [Example 128, 4-((1R,3S)-1-Aminomethyl-5-hydroxy-6-methyl-isochroman-3-yl)-piperidine-1-carboxylic acid (4-fluoro-phenyl)-amide hydrochloride], the inhibitory constant (Ki) in assay [1] was ≥ 10000 nM; in assay [2] it was 106 nM. Moreover, the EC50 on D1 receptor stood at 6000 nM.

On to `CCNC[C@@H]1O[C@H](C2CCN(CC(=O)c3ccccc3)CC2)Cc2c1ccc(C)c2O` [Example 179, 2-[4-((1R,3S)-1-Ethylaminomethyl-5-hydroxy-6-methyl-isochroman-3-yl)-piperidin-1-yl]-1-phenyl-ethanone], for which the Ki was 215 nM in assay [1] and 139 nM in assay [2]. The half-maximal effective concentration (EC50) on D1 receptor came to 810 nM.

Turning to `Cc1ccc2c(c1O)C[C@@H](C1CCN(Cc3cccc4ccccc34)CC1)O[C@H]2CN` [Example 39, (1R,3S)-1-Aminomethyl-6-methyl-3-(1-naphthalen-1-ylmethyl-piperidin-4-yl)-isochroman-5-ol dihydrochloride], the Ki in assay [1] was ≥ 10000 nM; in assay [2], 113 nM. For the same molecule, the EC50 on D1 receptor was found to be 750 nM.

As to `Cc1ccc2c(c1O)C[C@@H](C1CCN(S(=O)(=O)c3cc(Cl)ccc3Cl)CC1)O[C@H]2CN` [Example 151, (1R,3S)-1-Aminomethyl-3-[1-(2,5-dichloro-benzenesulfonyl)-piperidin-4-yl]-6-methyl-isochroman-5-ol hydrochloride], the Ki is ≥ 100000 nM in assay [1] and 82 nM in assay [2]. In addition, on D1 receptor, the EC50 came out at 58 nM.

As for `Cc1ccc2c(c1O)C[C@@H](C1CCN(Cc3ccc(F)cc3)CC1)O[C@H]2CN` [Example 26, (1R,3S)-1-Aminomethyl-3-[1-(4-fluoro-benzyl)-piperidin-4-yl]-6-methyl-isochroman-5-ol dihydrobromide], the values for the inhibition constant (Ki) in assay [1] and in assay [2] were ≥ 10000 nM and 33 nM, respectively. On D1 receptor, the EC50 worked out at 11 nM.

Turning to `COC(=O)N1CCC([C@@H]2Cc3c(ccc(C)c3O)[C@H](CN)O2)CC1` [Example 112, 4-((1R,3S)-1-Aminomethyl-5-hydroxy-6-methyl-isochroman-3-yl)-piperidine-1-carboxylic acid methyl ester hydrochloride], the values for the Ki in assay [1] and in assay [2] were ≥ 100000 nM and 101 nM, respectively. Also, the EC50 on D1 receptor was 0.6 nM.

On to `Cc1ccc2c(c1O)C[C@@H](C1CCN(CC3CC3)CC1)O[C@H]2CN` [Example 38, (1R,3S)-1-Aminomethyl-3-(1-cyclopropylmethyl-piperidin-4-yl)-6-methyl-isochroman-5-ol dihydrochloride], for which the results for the Ki in assay [1] and in assay [2] were ≥ 10000 nM and 53 nM, respectively. For the same molecule, at D1 receptor, the EC50 worked out at 10 nM.

Take `Cc1ccc2c(c1O)C[C@@H](C1CCN(CCC(C)c3noc4cc(F)ccc34)CC1)O[C@H]2CN` (stereo partly drawn) [Example 104, (1R,3S)-1-Aminomethyl-3-{1-[3-(6-fluoro-benzo[d]isoxazol-3-yl)butyl]piperidin-4-yl}-6-methylisochroman-5-ol dihydrochloride]: the Ki in assay [1] came to 122 nM; in assay [2], 70 nM. The EC50 at D1 receptor stood at 116 nM.

For the molecule `Cc1ccc2c(c1O)C[C@@H](C1CCN(Cc3nc4ccccc4n3C)CC1)O[C@H]2CN` [Example 92, (1R,3S)-1-Aminomethyl-6-methyl-3-[1-(1-methyl-1H-benzoimidazol-2-ylmethyl)-piperidin-4-yl]-isochroman-5-ol trihydrochloride], the Ki turned out to be 93.4 nM in assay [1] and 29.2 nM in assay [2]. The EC50 at D1 receptor worked out at 0.98 nM.

Regarding `Cc1ccc2c(c1O)C[C@@H](C1CCN(Cc3ccc4ccccc4c3)CC1)O[C@H]2CN` [Example 45, (1R,3S)-1-Aminomethyl-6-methyl-3-(1-naphthalen-2-ylmethyl-piperidin-4-yl)-isochroman-5-ol dihydrochloride], the inhibition constant (Ki) in assay [1] was ≥ 10000 nM; in assay [2], 96.4 nM. Further, the EC50 at D1 receptor is 110 nM.

With `Cc1ccc2c(c1O)C[C@@H](C1CCN(Cc3cc(C(F)(F)F)cc(C(F)(F)F)c3)CC1)O[C@H]2CN` [Example 75, (1R,3S)-1-Aminomethyl-3-[1-(3,5-bis-trifluoromethyl-benzyl)-piperidin-4-yl]-6-methyl-isochroman-5-ol dihydrochloride], the Ki worked out at 120 nM in assay [1] and 42 nM in assay [2]. Also, at D1 receptor, the EC50 is 220 nM.

With `Cc1ccc2c(c1O)C[C@@H](C1CCN(Cc3csc4ccccc34)CC1)O[C@H]2CN` [Example 87, (1R,3S)-1-Aminomethyl-6-methyl-3-(1-benzo[b]thiophen-3-ylmethyl-piperidin-4-yl)-isochroman-5-ol dihydrochloride], the Ki in assay [1] was 23.8 nM; in assay [2] it was 23.9 nM. Moreover, at D1 receptor, the EC50 is 27 nM.

As to `Cc1ccc2c(c1O)C[C@@H](C1CCN(Cc3cccs3)CC1)O[C@H]2CN` [Example 47, (1R,3S)-1-Aminomethyl-6-methyl-3-(1-thiophen-2-ylmethyl-piperidin-4-yl)-isochroman-5-ol dihydrochloride], the Ki in assay [1] is ≥ 10000 nM; in assay [2], 66.4 nM. For the same molecule, the EC50 on D1 receptor came out at 170 nM.
